Values after ≈ are worked out from the molar mass of the structure shown. Values joined by “and” are separate entries in the source; they are usually repeats but may differ in a detail not shown here. Identical values can stand only once. Like-named read-outs stand apart in the source and are kept apart here.
How the values were obtained:
[1] = tested on: Vesicular stomatitis virus; experiment: microbe, parasite or virus in culture; format: cell-based; settings: read-out: MIC50 Vesicular stomatitis virus
[2] = tested on: Respiratory syncytial virus; experiment: Antiviral activity; format: cell-based; settings: human respiratory syncytial virus, read-out: MIC50 Respiratory syncytial virus
[3] = tested on: Influenza A H3N2 virus; experiment: Antiviral activity; format: cell-based; settings: for MIC50: Influenza A virus
[4] = tested on: Reovirus 1; experiment: Antiviral activity; format: cell-based; settings: Mammalian orthoreovirus 1, read-out: MIC50 Reovirus 1
[5] = tested on: Parainfluenza 3 virus; experiment: Antiviral activity; format: cell-based; settings: read-out: MIC50 Parainfluenza 3 virus
[6] = tested on: Cervical Cancer Cells (HeLa); experiment: Cytotoxicity in HeLa cells; format: cell-based
[7] = tested on: Influenza A H1N1 virus; experiment: Antiviral activity; format: cell-based; settings: for MIC50: Influenza A virus
[8] = tested on: Influenza B virus; experiment: Antiviral activity; format: cell-based; settings: for MIC50: Influenza B virus
[9] = tested on: Cocker Spaniel Hepatocytes (MDCK); experiment: Cytotoxicity in MDCK cells; format: cell-based
[10] = Cytotoxicity in MDCK cells; format: cell-based, Cocker Spaniel; settings: dog
[11] = tested on: Sindbis virus; experiment: Antiviral activity; format: cell-based; settings: read-out: MIC50 Sindbis virus
[12] = tested on: Simplex herpes 2 G virus; experiment: Antiviral activity; format: cell-based, Simplex herpes 2 virus; settings: read-out: MIC50 Simplex herpes 2 G virus
[13] = tested on: Simplex herpes 1 TK-KOS ACVr virus; experiment: Antiviral activity; format: cell-based, Simplex herpes 1 virus; settings: read-out: MIC50 Simplex herpes 1 TK-KOS ACVr virus
[14] = tested on: Vesicular stomatitis virus; experiment: microbe, parasite or virus in culture; format: cell-based; settings: read-out: MIC50 Vesicular stomatitis virus; remark: listed apart in the source
[15] = tested on: Human Erythroleukemia Cells (HEL); experiment: Cytotoxicity; format: cell-based; settings: morphological changes detected microscopically
[16] = tested on: Simplex herpes 1 KOS virus; experiment: Antiviral activity; format: cell-based, Simplex herpes 1 virus; settings: read-out: MIC50 Simplex herpes 1 KOS virus
[17] = tested on: African Green Monkey Epithelial Kidney Cells (VERO); experiment: Cytotoxicity in VERO cells; format: cell-based
[18] = tested on: Feline Kidney Cells (CRFK); experiment: Cytotoxicity in CRFK cells; format: cell-based
[19] = tested on: Respiratory syncytial virus; settings: literature data; cited from earlier work
[20] = tested on: Parainfluenza 3 virus; settings: literature data; cited from earlier work
[21] = tested on: Feline coronavirus; experiment: Antiviral activity; format: cell-based; settings: for MIC50: Alphacoronavirus 1, read-out: MIC50 Feline coronavirus; for MIC50 Feline coronavirus: CRFK cells
[22] = tested on: Feline herpes virus; experiment: Antiviral activity; format: cell-based; settings: for MIC50: read-out: MIC50 Feline herpes virus
[23] = tested on: Influenza A H1N1 virus; settings: previously reported; cited from earlier work
[24] = tested on: Influenza A H3N2 virus; settings: literature; cited from earlier work
[25] = tested on: Influenza B virus; settings: literature; cited from earlier work
[26] = H3N2, read-out: MIC50 Influenza A H3N2 virus CA
[27] = H3N2, read-out: MIC50 Influenza A H3N2 virus VA
[28] = H1N1, read-out: MIC50 Influenza A H1N1 virus CA
[29] = H1N1, read-out: MIC50 Influenza A H1N1 virus VA
[30] = read-out: MIC50 Influenza B virus CA
[31] = read-out: MIC50 Influenza B virus VA
[32] = MDCK cells, colorimetric assessment
[33] = MDCK cells, visual assessment (microscopy)

Molecule	MIC50 [1]	MIC50 [2]	MIC50 [3, 26]	MIC50 [3, 27]	MIC50 [4]	MIC50 [5]	MCC [6]	MIC50 [7, 28]	MIC50 [7, 29]	MIC50 [8, 30]	MIC50 [8, 31]	MCC [9]	CC50 [10]	MIC50 [11]	MIC50 [12]	MIC50 [13]	MIC50 [14]	MCC (minimum cytotoxic concentration) [15]	MIC50 [16]	further results
NC(=O)c1ncn([C@@H]2O[C@H](CO)[C@@H](O)[C@H]2O)n1 [Ribavirin]	10 µM (≈ 2.44 µg/mL)	10 µM (≈ 2.44 µg/mL)	10.7 µM (≈ 2.61 µg/mL)	9 µM (≈ 2.2 µg/mL)	> 250 µM	50 µM (≈ 12.2 µg/mL)	>250 µM	6.4 µM (≈ 1.56 µg/mL)	9 µM (≈ 2.2 µg/mL)	5.9 µM (≈ 1.44 µg/mL)	20 µM (≈ 4.88 µg/mL)	>100 µM	> 100 µM	> 250 µM	–	–	–	–	–	–
NC12CC3CC(CC(C3)C1)C2 [Amantadine]	–	–	1.6 µM (≈ 0.242 µg/mL)	4 µM (≈ 0.605 µg/mL)	–	–	–	83.9 µM (≈ 12.7 µg/mL)	89 µM (≈ 13.5 µg/mL)	> 200 µM	> 200 µM	>200 µM	> 200 µM	–	–	–	–	–	–	–
Nc1nc2c(ncn2COCCO)c(=O)[nH]1 [Acyclovir]	–	–	–	–	–	–	–	–	–	–	–	–	–	–	0.08 µM (≈ 0.018 µg/mL)	2 µM (≈ 0.45 µg/mL)	250 µM (≈ 56.3 µg/mL)	>250 µM	0.2 µM (≈ 0.045 µg/mL)	–
CCOC(=O)c1c(CSc2ccccc2)n(C)c2cc(Br)c(O)c(CN(C)C)c12.Cl.O [Umifenovir, Ethyl 6-bromo-4-(dimethylamino)methyl-5-hydroxy-1-methyl-2-(phenylsulfanyl)methyl-1 H -indole-3-carboxylate hydrochloride monohydrate]	> 7.5 µM and > 4 µg/mL	> 7.5 µM and > 4 µg/mL	> 7.5 µM and > 4 µg/mL	> 7.5 µM and > 4 µg/mL	> 190 µM and > 100 µg/mL	> 190 µM and > 100 µg/mL	37 μM and 20 μg/ml	> 7.5 µM and > 4 µg/mL	> 7.5 µM and > 4 µg/mL	> 7.5 µM and > 4 µg/mL	> 7.5 µM and > 4 µg/mL	19.6 μM and 10.4 μg/ml	37 µM and 20 µg/mL	> 190 µM and > 100 µg/mL	> 37 µM and > 20 µg/mL	> 37 µM and > 20 µg/mL	> 37 µM and > 20 µg/mL	188 μM and 100 μg/ml	> 37 µM and > 20 µg/mL	MCs [17]: > 190 μM and > 100 μg/ml; MCC [18]: 19.0 μM and 10.1 μg/ml; MCC ([18]; listed as umifenovir): 10.1 µg/mL; MIC50 respiratory syncytial virus [19]: 8.7 µg/mL; MIC50 parainfluenza 3 virus [20]: 4.9 µg/mL; MIC50 [21]: > 7.5 µM and > 4 µg/mL; MIC50 [22]: > 7.5 µM and > 4 µg/mL; MIC50 influenza A H1N1 virus replication [23]: 2.7 to 4.0 µg/mL; MCC ([9]; listed as umifenovir): 10.4 µg/mL; MIC50 H3N2 influenza A virus replication [24]: 6.7 µg/mL; MIC50 influenza B virus replication [25]: 7.1 µg/mL
Nc1nc(O)c2ncn(COC(CO)CO)c2n1 [Ganciclovir]	–	–	–	–	–	–	–	–	–	–	–	–	–	–	0.03 µM (≈ 0.00766 µg/mL)	0.2 µM (≈ 0.051 µg/mL)	> 100 µM	>100 µM	0.08 µM (≈ 0.0204 µg/mL)	MIC50 [21]: > 100 µM
CCOC(=O)c1c([C@@H]2C[C@H]2c2ccccc2)n(C)c2ccc(O)cc12 (relative stereo) [Compound 3, ethyl 5-hydroxy-1-methyl-2-(trans-2-phenylcyclopropyl)-1H-indole-3-carboxylate]	> 300 µM and > 100 µg/mL	> 300 µM and > 100 µg/mL	> 12 µM and > 4 µg/mL	> 12 µM and > 4 µg/mL	> 300 µM and > 100 µg/mL	> 300 µM and > 100 µg/mL	> 300 μM and > 100 μg/ml	> 12 µM and > 4 µg/mL	> 12 µM and > 4 µg/mL	> 12 µM and > 4 µg/mL	> 12 µM and > 4 µg/mL	–	59.6 µM and 20 µg/mL	> 300 µM and > 100 µg/mL	> 300 µM and > 100 µg/mL	> 300 µM and > 100 µg/mL	> 300 µM and > 100 µg/mL	> 300 μM and > 100 μg/ml	> 300 µM and > 100 µg/mL	MIC50 [21]: > 300 µM and > 100 µg/mL; MIC50 [22]: > 300 µM and > 100 µg/mL
CC(N)C12CC3CC(CC(C3)C1)C2 (centres unmarked) [Remantadine]	–	–	–	–	–	–	–	–	–	–	–	>200 µM	–	–	–	–	–	–	–	MIC50 Influenza A H3N2 virus CA [3, 32]: 0.3 µM (≈ 0.0538 µg/mL); MIC50 Influenza A H3N2 virus VA [3, 33]: 0.3 µM (≈ 0.0538 µg/mL); MIC50 Influenza A H1N1 virus CA [7, 32]: 10.3 µM (≈ 1.85 µg/mL); MIC50 Influenza A H1N1 virus VA [7, 33]: 20 µM (≈ 3.59 µg/mL); MIC50 Influenza B virus CA [8, 32]: >200 µM; MIC50 Influenza B virus VA [8, 33]: >200 µM
3'-(1-Carboxy-1-phosphonoxyethoxy)uridinediphosphate-N-acetylglucosamine [UDA]	–	–	–	–	–	–	–	–	–	–	–	–	–	–	–	–	–	–	–	MIC50 Feline coronavirus [21]: 1.1 µM; MIC50 Feline herpes virus ([22]; CRFK cells): 0.8 µM
Nc1ncnc2c1ncn2C[C@H](O)CO [(S)-DHPA, 9-((2S)-2,3-Dihydroxypropyl)adenine]	> 250 µM	> 250 µM	–	–	> 250 µM	> 250 µM	>250 µM	–	–	–	–	–	–	> 250 µM	–	–	–	–	–	–
CC(=O)N[C@H]1[C@H]([C@H](O)[C@H](O)CO)OC(C(=O)O)=C[C@@H]1N=C(N)N [Zanamivir]	–	–	2 µM (≈ 0.665 µg/mL)	4 µM (≈ 1.33 µg/mL)	–	–	–	1.2 µM (≈ 0.399 µg/mL)	0.8 µM (≈ 0.266 µg/mL)	0.3 µM (≈ 0.0997 µg/mL)	–	>100 µM	> 100 µM	–	–	–	–	–	–	–
N[C@H]1C(C(=O)O)=CC=C[C@@H]1O (relative stereo) [HHA, (2S,3S)-trans-3-Hydroxy-2,3-dihydroanthranilic acid]	–	–	–	–	–	–	–	–	–	–	–	–	–	–	–	–	–	–	–	MIC50 Feline coronavirus [21]: 13.0 µM (≈ 2.02 µg/mL)
O=c1[nH]c(=O)n([C@H]2C[C@H](O)[C@@H](CO)O2)cc1/C=C/Br [Brivudine]	–	–	–	–	–	–	–	–	–	–	–	–	–	–	183 µM (≈ 61 µg/mL)	2 µM (≈ 0.666 µg/mL)	> 250 µM	>250 µM	0.04 µM (≈ 0.0133 µg/mL)	–
Nc1ccn(C[C@@H](CO)OCP(=O)(O)O)c(=O)n1 [Cidofovir]	–	–	–	–	–	–	–	–	–	–	–	–	–	–	2 µM (≈ 0.558 µg/mL)	6 µM (≈ 1.68 µg/mL)	> 250 µM	>250 µM	6 µM (≈ 1.68 µg/mL)	–

Reference: PMC7088350 (Chemistry of Heterocyclic Compounds, 2014)
